In US20140094424A1, “MICROBICIDAL COMPOSITIONS AND METHODS OF PRODUCTION USE THEREOF” (priority 2011, published 2014):

Experiments:
[1] = system: Aspergillus glaucus- DMO (Q); assay: MBC (minimum bactericidal concentration) test in Wash NEXT reagent; format: cell-based
Method: (§1) The stock organisms were thawed and subbed prior to beginning the MBC test. Molds were subbed to SDA plates one week before, and the bacteria were subbed to TAT agar plates 24 hours prior to the start of the test. All plates were incubated at 32 degrees C.
(§2) For the molds, each organism was inoculated into 40 ml sterile saline in a centrifuge tube to create a density of MacFarland #5. Two serial dilutions of 1:100 were then made, resulting in 10^−2 and 10^−4 concentrations. Each dilution was vortexed before it was sampled, and sterile Eppendorf pipette tips were used to make each transfer. The 10^−4 dilution was spiral plated to yield the initial inoculum concentration.
(§3) MBC trays were set up with the prepared test reagent. Using a Matrix pipettor, 100 μl aliquots of reagent were distributed into the wells, diluting the amount of preservative from 100% to 10% increments, using unpreserved reagent as the diluent. In one row, 100% non-preserved reagent acted as a positive control and served as a benchmark for a full mat of growth. In well #12H, 100 μl unpreserved reagent was pipetted, and this well was not inoculated with organisms, as it served as the negative control. Once all of the trays were prepared, the prepared bacteria/mold suspensions were poured into the MBC inoculating trays. These were placed onto the reagent trays, and 0.01 ml inoculum was introduced into the 100 μl of reagent in each well.
(§4) This was done by dipping a sterile cotton swab into each well, and absorbing all of the liquid in the well. The swab was rolled onto a TAT agar plate ensuring that the entire swab touches the agar. Plates ware incubated at 32 degrees C. for 48 hours to 7 days, depending on the organism. Observations for growth were performed by a scoring matrix using + for a full mat, +/− for some growth, a numerical value for an actual colony count, and—for no growth.
(§5) Below are tables that contain the data obtained in Example 1. The MBC test is scored by (+) indicating a full grown mat of organisms, equivalent to the organisms in the unpreserved reagent. (+/−) indicates there is some kill evident disturbing that mat or bringing the quantities down to an almost countable level. An actual number is the actual number of colonies growing at that concentration of preservative. (−) indicates no growth found. The MBC trays were stored at room temperature for the entire test.
(§6) The materials and methods and analysis of the MBC test were the same as in Example 1.

Pseudomonas putida (K) = assay: as above; format: cell-based
Method: as §1
as §2, with “Each bacterial” for “For the molds, each”, “#1.” for “#5.”
as §3, §4, §5, §6

For gentamicin, the “MBC test growth score” value ([1]; 10% preservative, 8 hour) was “+”, the “MBC test growth score” value ([1]; 10% preservative, 24 hour) was “+” and the “MBC test growth score” value ([1]; 10% preservative, 48 hour) was “+/−”. For the same substance, the “MBC test growth score” value ([1]; 10% preservative, 72 hour) was “+/−”, the “MBC test growth score” value ([1]; 10% preservative, 7 day) was “+/−” and the “MBC test growth score” value ([1]; 10% preservative, 14 day) was “+/−”. For the same substance, the “MBC test growth score” value ([1]; 20% preservative, 8 hour) was “+”, the “MBC test growth score” value ([1]; 20% preservative, 24 hour) was “+” and the “MBC test growth score” value ([1]; 20% preservative, 48 hour) was “+/−”. The “MBC test growth score” value ([1]; 20% preservative, 72 hour) was “+/−”, the “MBC test growth score” value ([1]; 20% preservative, 7 day) was “+/−” and the “MBC test growth score” value ([1]; 20% preservative, 14 day) was “+/−”. For the same substance, the “MBC test growth score” value ([1]; 30% preservative, 8 hour) was “+”, the “MBC test growth score” value ([1]; 30% preservative, 24 hour) was “+” and the “MBC test growth score” value ([1]; 30% preservative, 48 hour) was “+/−”. For the same substance, the “MBC test growth score” value ([1]; 30% preservative, 72 hour) was “+/−”, the “MBC test growth score” value ([1]; 30% preservative, 7 day) was “+/−” and the “MBC test growth score” value ([1]; 30% preservative, 14 day) was 36. The “MBC test growth score” value ([1]; 40% preservative, 8 hour) was “+”, the “MBC test growth score” value ([1]; 40% preservative, 24 hour) was “+” and the “MBC test growth score” value ([1]; 40% preservative, 48 hour) was “+/−”. The “MBC test growth score” value ([1]; 40% preservative, 72 hour) was “+/−”, the “MBC test growth score” value ([1]; 40% preservative, 7 day) was “+/−” and the “MBC test growth score” value ([1]; 40% preservative, 14 day) was 35. For the same substance, the “MBC test growth score” value ([1]; 50% preservative, 8 hour) was “+”, the “MBC test growth score” value ([1]; 50% preservative, 24 hour) was “+” and the “MBC test growth score” value ([1]; 50% preservative, 48 hour) was “+/−”. For the same substance, the “MBC test growth score” value ([1]; 50% preservative, 72 hour) was “+/−”, the “MBC test growth score” value ([1]; 50% preservative, 7 day) was 29 and the “MBC test growth score” value ([1]; 50% preservative, 14 day) was 28. For the same substance, the “MBC test growth score” value ([1]; 60% preservative, 8 hour) was “+”, the “MBC test growth score” value ([1]; 60% preservative, 24 hour) was “+” and the “MBC test growth score” value ([1]; 60% preservative, 48 hour) was “+/−”. For the same substance, the “MBC test growth score” value ([1]; 60% preservative, 72 hour) was “+/−”, the “MBC test growth score” value ([1]; 60% preservative, 7 day) was 25 and the “MBC test growth score” value ([1]; 60% preservative, 14 day) was 26. The “MBC test growth score” value ([1]; 70% preservative, 8 hour) was “+”, the “MBC test growth score” value ([1]; 70% preservative, 24 hour) was “+” and the “MBC test growth score” value ([1]; 70% preservative, 48 hour) was “+/−”. For the same substance, the “MBC test growth score” value ([1]; 70% preservative, 72 hour) was “+/−”, the “MBC test growth score” value ([1]; 70% preservative, 7 day) was 21 and the “MBC test growth score” value ([1]; 70% preservative, 14 day) was 20. The “MBC test growth score” value ([1]; 80% preservative, 8 hour) was “+”, the “MBC test growth score” value ([1]; 80% preservative, 24 hour) was “+” and the “MBC test growth score” value ([1]; 80% preservative, 48 hour) was “+/−”. The “MBC test growth score” value ([1]; 80% preservative, 72 hour) was “+/−”, the “MBC test growth score” value ([1]; 80% preservative, 7 day) was 16 and the “MBC test growth score” value ([1]; 80% preservative, 14 day) was 14. For the same substance, the “MBC test growth score” value ([1]; 90% preservative, 8 hour) was “+”, the “MBC test growth score” value ([1]; 90% preservative, 24 hour) was “+” and the “MBC test growth score” value ([1]; 90% preservative, 48 hour) was “+/−”. The “MBC test growth score” value ([1]; 90% preservative, 72 hour) was 22, the “MBC test growth score” value ([1]; 90% preservative, 7 day) was 10 and the “MBC test growth score” value ([1]; 90% preservative, 14 day) was 9. The “MBC test growth score” value ([1]; 100% preservative, 8 hour) was “+”, the “MBC test growth score” value ([1]; 100% preservative, 24 hour) was “+” and the “MBC test growth score” value ([1]; 100% preservative, 48 hour) was “+/−”. The “MBC test growth score” value ([1]; 100% preservative, 72 hour) was 18, the “MBC test growth score” value ([1]; 100% preservative, 7 day) was 5 and the “MBC test growth score” value ([1]; 100% preservative, 14 day) was 4. For the same substance, the “MBC test growth score” value (Pseudomonas putida (K); 10% preservative, 8 hour) was “−”, the “MBC test growth score” value (Pseudomonas putida (K); 10% preservative, 24 hour) was “−” and the “MBC test growth score” value (Pseudomonas putida (K); 10% preservative, 48 hour) was “−”. The “MBC test growth score” value (Pseudomonas putida (K); 10% preservative, 72 hour) was “−”, the “MBC test growth score” value (Pseudomonas putida (K); 20% preservative, 8 hour) was “−” and the “MBC test growth score” value (Pseudomonas putida (K); 20% preservative, 24 hour) was “−”. The “MBC test growth score” value (Pseudomonas putida (K); 20% preservative, 48 hour) was “−”, the “MBC test growth score” value (Pseudomonas putida (K); 20% preservative, 72 hour) was “−” and the “MBC test growth score” value (Pseudomonas putida (K); 30% preservative, 8 hour) was “−”. The “MBC test growth score” value (Pseudomonas putida (K); 30% preservative, 24 hour) was “−”, the “MBC test growth score” value (Pseudomonas putida (K); 30% preservative, 48 hour) was “−” and the “MBC test growth score” value (Pseudomonas putida (K); 30% preservative, 72 hour) was “−”. The “MBC test growth score” value (Pseudomonas putida (K); 40% preservative, 8 hour) was “−”, the “MBC test growth score” value (Pseudomonas putida (K); 40% preservative, 24 hour) was “−” and the “MBC test growth score” value (Pseudomonas putida (K); 40% preservative, 48 hour) was “−”. For the same substance, the “MBC test growth score” value (Pseudomonas putida (K); 40% preservative, 72 hour) was “−”, the “MBC test growth score” value (Pseudomonas putida (K); 50% preservative, 8 hour) was “−” and the “MBC test growth score” value (Pseudomonas putida (K); 50% preservative, 24 hour) was “−”. For the same substance, the “MBC test growth score” value (Pseudomonas putida (K); 50% preservative, 48 hour) was “−”, the “MBC test growth score” value (Pseudomonas putida (K); 50% preservative, 72 hour) was “−” and the “MBC test growth score” value (Pseudomonas putida (K); 60% preservative, 8 hour) was “−”. The “MBC test growth score” value (Pseudomonas putida (K); 60% preservative, 24 hour) was “−”, the “MBC test growth score” value (Pseudomonas putida (K); 60% preservative, 48 hour) was “−” and the “MBC test growth score” value (Pseudomonas putida (K); 60% preservative, 72 hour) was “−”. For the same substance, the “MBC test growth score” value (Pseudomonas putida (K); 70% preservative, 8 hour) was “−”, the “MBC test growth score” value (Pseudomonas putida (K); 70% preservative, 24 hour) was “−” and the “MBC test growth score” value (Pseudomonas putida (K); 70% preservative, 48 hour) was “−”. For the same substance, the “MBC test growth score” value (Pseudomonas putida (K); 70% preservative, 72 hour) was “−”, the “MBC test growth score” value (Pseudomonas putida (K); 80% preservative, 8 hour) was “−” and the “MBC test growth score” value (Pseudomonas putida (K); 80% preservative, 24 hour) was “−”. For the same substance, the “MBC test growth score” value (Pseudomonas putida (K); 80% preservative, 48 hour) was “−”, the “MBC test growth score” value (Pseudomonas putida (K); 80% preservative, 72 hour) was “−” and the “MBC test growth score” value (Pseudomonas putida (K); 90% preservative, 8 hour) was “−”. For the same substance, the “MBC test growth score” value (Pseudomonas putida (K); 90% preservative, 24 hour) was “−”, the “MBC test growth score” value (Pseudomonas putida (K); 90% preservative, 48 hour) was “−” and the “MBC test growth score” value (Pseudomonas putida (K); 90% preservative, 72 hour) was “−”. The “MBC test growth score” value (Pseudomonas putida (K); 100% preservative, 8 hour) was “−”, the “MBC test growth score” value (Pseudomonas putida (K); 100% preservative, 24 hour) was “−” and the “MBC test growth score” value (Pseudomonas putida (K); 100% preservative, 48 hour) was “−”. For the same substance, the “MBC test growth score” value (Pseudomonas putida (K); 100% preservative, 72 hour) was “−”.
